Laboratory results published in ChEMBL document CHEMBL5291721, “A preclinical secondary pharmacology resource illuminates target-adverse drug reaction associations of marketed drugs” (Nat Commun, 2023).

Key:
[1] = molecular target: T1, Prostaglandin G/H synthase 1 (Rattus norvegicus, UniProt Q63921); assay type: functional
T1 sequence (Q63921 whole entry): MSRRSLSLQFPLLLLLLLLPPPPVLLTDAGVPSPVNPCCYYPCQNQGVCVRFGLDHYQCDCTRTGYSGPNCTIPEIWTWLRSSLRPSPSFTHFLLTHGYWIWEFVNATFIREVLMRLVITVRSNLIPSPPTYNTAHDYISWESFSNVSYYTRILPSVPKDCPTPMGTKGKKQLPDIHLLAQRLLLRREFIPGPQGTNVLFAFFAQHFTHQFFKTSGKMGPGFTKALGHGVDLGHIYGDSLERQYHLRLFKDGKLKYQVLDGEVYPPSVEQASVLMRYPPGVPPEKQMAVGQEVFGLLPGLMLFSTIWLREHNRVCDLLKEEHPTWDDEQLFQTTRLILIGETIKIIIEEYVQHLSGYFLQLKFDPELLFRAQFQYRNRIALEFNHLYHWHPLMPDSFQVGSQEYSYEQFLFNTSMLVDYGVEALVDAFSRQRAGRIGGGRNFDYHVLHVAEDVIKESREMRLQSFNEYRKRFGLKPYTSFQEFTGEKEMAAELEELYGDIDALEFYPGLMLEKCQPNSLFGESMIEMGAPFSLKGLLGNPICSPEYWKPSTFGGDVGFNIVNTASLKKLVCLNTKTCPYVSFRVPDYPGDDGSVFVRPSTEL

[2] = molecular target: Gamma-aminobutyric acid receptor subunit alpha-1 (Rattus norvegicus, UniProt P62813)
[3] = molecular target: Beta-1 adrenergic receptor (Homo sapiens, UniProt P08588); assay type: functional
Melanocortin receptor 3 = Melanocortin receptor 3 (Homo sapiens, UniProt P41968)
[4] = molecular target: T2, Alpha-2A adrenergic receptor (Homo sapiens, UniProt P08913); assay type: functional, cell-based
T2 sequence (P08913 whole entry): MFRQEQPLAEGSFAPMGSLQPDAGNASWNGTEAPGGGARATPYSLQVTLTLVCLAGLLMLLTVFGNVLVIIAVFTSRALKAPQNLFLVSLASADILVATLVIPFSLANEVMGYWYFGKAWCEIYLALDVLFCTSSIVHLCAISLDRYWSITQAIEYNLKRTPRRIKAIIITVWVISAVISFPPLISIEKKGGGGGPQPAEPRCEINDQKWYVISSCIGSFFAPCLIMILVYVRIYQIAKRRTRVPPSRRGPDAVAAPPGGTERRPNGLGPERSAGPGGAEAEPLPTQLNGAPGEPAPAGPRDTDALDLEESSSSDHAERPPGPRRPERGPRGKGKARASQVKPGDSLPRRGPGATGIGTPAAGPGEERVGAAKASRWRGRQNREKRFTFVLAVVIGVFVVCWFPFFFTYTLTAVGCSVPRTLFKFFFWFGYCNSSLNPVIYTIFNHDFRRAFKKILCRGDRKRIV

[5] = molecular target: Neuronal acetylcholine receptor subunit alpha-4 (Homo sapiens, UniProt P43681)
[6] = molecular target: Sodium-dependent dopamine transporter (Homo sapiens, UniProt Q01959)
[7] = molecular target: T3, 5-hydroxytryptamine receptor 2C (Homo sapiens, UniProt P28335)
T3 sequence (P28335 whole entry): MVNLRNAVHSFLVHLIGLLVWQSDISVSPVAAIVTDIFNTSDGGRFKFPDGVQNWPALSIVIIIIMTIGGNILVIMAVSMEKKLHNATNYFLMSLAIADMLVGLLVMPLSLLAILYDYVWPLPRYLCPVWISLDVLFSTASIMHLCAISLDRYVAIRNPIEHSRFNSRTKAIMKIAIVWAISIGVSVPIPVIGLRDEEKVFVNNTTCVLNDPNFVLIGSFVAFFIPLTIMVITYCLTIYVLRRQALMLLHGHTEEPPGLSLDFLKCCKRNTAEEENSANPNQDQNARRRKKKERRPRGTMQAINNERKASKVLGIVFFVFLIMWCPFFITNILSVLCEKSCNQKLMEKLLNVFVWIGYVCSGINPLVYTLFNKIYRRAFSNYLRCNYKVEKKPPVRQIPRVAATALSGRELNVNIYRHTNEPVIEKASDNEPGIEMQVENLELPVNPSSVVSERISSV

[8] = molecular target: Growth hormone secretagogue receptor type 1 (Homo sapiens, UniProt Q92847)
Estrogen receptor = molecular target: T4, Estrogen receptor (Homo sapiens, UniProt P03372)
T4 sequence (P03372 whole entry): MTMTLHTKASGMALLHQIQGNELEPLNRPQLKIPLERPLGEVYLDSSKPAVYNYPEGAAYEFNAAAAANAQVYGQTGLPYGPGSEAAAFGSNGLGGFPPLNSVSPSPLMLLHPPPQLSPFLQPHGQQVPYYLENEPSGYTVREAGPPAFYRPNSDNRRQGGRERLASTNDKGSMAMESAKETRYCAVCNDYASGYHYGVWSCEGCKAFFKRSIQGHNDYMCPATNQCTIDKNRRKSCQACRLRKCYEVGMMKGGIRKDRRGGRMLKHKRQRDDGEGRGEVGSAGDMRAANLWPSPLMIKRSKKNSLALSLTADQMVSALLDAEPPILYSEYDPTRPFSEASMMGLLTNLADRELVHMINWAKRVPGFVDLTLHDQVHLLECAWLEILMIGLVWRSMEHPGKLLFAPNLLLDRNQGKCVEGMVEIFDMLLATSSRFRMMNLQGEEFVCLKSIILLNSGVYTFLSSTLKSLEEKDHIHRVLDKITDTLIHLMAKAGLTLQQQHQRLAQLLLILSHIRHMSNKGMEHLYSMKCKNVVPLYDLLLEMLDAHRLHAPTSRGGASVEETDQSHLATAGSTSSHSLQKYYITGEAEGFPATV

[9] = molecular target: Vascular endothelial growth factor receptor 2 (Homo sapiens, UniProt P35968); assay type: functional
D(3) dopamine receptor = D(3) dopamine receptor (Homo sapiens, UniProt P35462)
Further: assay procedure not described here.

Chain of Beta-1 adrenergic receptor (P08588 whole entry): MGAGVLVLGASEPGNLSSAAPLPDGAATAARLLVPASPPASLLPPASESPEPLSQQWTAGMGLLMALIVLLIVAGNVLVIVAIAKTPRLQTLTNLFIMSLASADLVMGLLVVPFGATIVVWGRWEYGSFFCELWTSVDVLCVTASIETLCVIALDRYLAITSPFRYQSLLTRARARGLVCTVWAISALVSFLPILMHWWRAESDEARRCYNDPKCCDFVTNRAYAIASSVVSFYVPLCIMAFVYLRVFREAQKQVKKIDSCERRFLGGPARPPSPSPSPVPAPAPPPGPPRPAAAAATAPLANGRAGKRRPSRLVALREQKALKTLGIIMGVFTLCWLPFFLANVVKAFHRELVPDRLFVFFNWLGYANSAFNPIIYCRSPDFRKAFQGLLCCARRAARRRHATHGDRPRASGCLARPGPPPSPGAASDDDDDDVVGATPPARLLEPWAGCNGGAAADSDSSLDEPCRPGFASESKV
Chain of Sodium-dependent dopamine transporter (Q01959 whole entry): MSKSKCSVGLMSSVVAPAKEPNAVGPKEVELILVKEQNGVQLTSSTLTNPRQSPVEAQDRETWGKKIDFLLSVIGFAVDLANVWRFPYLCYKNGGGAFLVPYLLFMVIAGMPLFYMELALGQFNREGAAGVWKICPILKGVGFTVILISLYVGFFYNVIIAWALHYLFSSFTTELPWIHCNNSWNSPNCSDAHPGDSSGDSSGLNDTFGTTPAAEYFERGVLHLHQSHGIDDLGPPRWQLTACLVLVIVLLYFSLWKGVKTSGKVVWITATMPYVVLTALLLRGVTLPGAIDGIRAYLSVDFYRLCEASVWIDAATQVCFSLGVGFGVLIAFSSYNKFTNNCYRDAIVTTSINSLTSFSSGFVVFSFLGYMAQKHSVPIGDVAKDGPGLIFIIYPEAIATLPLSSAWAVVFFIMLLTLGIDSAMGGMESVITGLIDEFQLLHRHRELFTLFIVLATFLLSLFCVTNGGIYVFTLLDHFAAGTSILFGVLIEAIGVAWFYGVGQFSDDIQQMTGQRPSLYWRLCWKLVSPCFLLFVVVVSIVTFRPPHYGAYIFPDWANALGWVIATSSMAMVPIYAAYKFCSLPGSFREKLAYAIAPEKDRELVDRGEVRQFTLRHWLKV
Chain of Gamma-aminobutyric acid receptor subunit alpha-1 (P62813 whole entry): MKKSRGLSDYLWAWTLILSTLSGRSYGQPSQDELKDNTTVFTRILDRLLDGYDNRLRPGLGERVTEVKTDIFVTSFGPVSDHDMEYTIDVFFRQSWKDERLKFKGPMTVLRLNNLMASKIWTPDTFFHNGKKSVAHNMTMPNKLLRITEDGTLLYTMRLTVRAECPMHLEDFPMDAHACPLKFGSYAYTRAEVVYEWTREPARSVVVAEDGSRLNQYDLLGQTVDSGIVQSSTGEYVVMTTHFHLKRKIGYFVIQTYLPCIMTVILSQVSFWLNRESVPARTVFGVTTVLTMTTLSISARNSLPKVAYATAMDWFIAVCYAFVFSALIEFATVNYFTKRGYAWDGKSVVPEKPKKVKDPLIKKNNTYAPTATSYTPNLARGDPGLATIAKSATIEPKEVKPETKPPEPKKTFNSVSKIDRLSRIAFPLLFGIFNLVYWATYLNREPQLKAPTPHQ
Chain of D(3) dopamine receptor (P35462 whole entry): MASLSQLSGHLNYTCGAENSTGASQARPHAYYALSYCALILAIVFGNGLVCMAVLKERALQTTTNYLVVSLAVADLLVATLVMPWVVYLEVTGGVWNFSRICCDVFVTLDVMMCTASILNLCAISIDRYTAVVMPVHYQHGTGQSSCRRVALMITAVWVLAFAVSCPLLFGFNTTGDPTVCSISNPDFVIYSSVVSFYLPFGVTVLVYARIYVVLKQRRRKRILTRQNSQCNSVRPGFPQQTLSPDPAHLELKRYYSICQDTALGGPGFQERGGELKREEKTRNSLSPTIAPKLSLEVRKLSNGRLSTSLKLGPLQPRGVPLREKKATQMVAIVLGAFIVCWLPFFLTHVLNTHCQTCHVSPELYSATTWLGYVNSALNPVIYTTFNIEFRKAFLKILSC
Chain of Melanocortin receptor 3 (P41968 whole entry): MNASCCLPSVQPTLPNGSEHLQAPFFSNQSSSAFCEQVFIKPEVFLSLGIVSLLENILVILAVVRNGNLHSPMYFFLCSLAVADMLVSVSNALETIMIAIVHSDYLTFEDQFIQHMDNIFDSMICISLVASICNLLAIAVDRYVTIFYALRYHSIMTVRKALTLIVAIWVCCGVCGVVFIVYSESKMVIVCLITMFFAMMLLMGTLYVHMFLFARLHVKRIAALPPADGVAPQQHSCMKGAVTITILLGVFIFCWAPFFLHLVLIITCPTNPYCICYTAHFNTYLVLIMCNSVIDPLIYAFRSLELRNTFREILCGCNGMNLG
Chain of Growth hormone secretagogue receptor type 1 (Q92847 whole entry): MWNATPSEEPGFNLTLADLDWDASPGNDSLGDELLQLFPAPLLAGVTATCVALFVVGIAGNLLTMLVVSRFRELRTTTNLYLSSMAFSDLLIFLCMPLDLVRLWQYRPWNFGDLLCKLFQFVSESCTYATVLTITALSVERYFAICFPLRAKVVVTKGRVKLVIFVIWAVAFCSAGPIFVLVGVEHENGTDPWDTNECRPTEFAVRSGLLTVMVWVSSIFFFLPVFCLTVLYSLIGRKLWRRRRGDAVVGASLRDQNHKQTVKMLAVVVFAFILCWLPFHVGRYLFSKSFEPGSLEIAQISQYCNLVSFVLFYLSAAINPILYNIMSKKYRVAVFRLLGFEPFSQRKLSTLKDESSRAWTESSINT
Chain of Neuronal acetylcholine receptor subunit alpha-4 (P43681 whole entry): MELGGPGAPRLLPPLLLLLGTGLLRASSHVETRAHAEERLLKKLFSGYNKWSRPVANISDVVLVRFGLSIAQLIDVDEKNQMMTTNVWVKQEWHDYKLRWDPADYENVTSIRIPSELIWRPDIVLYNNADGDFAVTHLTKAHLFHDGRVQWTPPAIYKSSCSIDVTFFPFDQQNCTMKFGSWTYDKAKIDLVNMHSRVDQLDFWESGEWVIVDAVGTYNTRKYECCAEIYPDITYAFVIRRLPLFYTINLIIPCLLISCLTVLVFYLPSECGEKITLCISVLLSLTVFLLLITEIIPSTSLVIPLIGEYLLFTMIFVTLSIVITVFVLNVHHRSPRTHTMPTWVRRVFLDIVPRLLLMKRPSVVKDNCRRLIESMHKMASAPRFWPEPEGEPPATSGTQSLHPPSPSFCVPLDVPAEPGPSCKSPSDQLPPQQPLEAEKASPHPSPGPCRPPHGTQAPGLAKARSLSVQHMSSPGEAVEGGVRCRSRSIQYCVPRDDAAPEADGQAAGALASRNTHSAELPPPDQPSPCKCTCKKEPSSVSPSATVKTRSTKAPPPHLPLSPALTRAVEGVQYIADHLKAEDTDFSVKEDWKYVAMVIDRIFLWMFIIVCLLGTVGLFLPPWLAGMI
Chain of Vascular endothelial growth factor receptor 2 (P35968 whole entry): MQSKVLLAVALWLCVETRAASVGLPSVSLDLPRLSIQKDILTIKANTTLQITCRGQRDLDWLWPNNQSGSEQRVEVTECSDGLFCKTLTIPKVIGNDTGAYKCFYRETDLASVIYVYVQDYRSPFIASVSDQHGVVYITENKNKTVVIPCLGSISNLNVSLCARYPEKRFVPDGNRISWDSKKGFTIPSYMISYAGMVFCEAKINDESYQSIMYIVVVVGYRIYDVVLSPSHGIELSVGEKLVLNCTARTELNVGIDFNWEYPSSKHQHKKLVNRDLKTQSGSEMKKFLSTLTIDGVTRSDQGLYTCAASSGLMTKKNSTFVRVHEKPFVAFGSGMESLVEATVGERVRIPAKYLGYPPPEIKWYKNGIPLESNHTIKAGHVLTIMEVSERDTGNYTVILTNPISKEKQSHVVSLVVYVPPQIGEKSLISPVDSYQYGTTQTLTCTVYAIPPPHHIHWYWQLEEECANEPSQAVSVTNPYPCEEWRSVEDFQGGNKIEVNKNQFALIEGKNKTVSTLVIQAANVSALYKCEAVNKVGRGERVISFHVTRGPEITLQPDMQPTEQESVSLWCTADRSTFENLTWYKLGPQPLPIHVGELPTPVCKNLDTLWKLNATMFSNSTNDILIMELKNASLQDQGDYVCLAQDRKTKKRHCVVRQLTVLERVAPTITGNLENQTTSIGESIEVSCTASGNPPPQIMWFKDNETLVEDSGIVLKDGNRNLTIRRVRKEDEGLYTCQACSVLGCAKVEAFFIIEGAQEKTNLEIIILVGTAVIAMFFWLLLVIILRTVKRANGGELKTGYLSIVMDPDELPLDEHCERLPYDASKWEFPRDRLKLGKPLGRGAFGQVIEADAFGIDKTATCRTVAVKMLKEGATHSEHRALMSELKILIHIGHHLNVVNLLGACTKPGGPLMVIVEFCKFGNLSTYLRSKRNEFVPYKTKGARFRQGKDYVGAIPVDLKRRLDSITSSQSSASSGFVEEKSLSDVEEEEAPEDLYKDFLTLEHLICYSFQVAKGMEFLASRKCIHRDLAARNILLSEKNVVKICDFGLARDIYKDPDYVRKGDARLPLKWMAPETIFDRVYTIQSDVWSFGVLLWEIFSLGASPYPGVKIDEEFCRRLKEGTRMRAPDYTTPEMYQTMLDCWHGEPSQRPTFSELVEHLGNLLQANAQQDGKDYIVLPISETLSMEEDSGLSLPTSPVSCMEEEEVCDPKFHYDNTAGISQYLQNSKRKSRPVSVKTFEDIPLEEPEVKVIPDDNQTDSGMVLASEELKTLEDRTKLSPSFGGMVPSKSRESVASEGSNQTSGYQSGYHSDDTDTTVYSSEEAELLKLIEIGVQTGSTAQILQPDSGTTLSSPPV

| SMILES | AC50 [1] | AC50 [2] | AC50 [3] | AC50 (Melanocortin receptor 3) | AC50 [4] | AC50 [5] | AC50 [6] | AC50 [7] | AC50 [8] | AC50 (Estrogen receptor) | AC50 [9] | AC50 (D(3) dopamine receptor) |
| --- | --- | --- | --- | --- | --- | --- | --- | --- | --- | --- | --- | --- |
| C[N+](C)(C)CCOP(=O)([O-])OC[C@H](O)CO | > 30 µM | > 30 µM | > 30 µM | > 30 µM | > 30 µM | > 30 µM | > 30 µM | > 30 µM | > 30 µM | > 30 µM | – | – |
| O=C(O)[C@@H]1C[C@@H](O)CN1 | – | – | – | – | – | – | – | – | – | – | > 30 µM | – |
| CN(C)C/C=C/C(=O)Nc1cc2c(Nc3ccc(F)c(Cl)c3)ncnc2cc1O[C@H]1CCOC1 [AFATINIB] | > 30 µM | > 30 µM | > 30 µM | 28 µM | – | > 30 µM | 23.2 µM | > 30 µM | > 30 µM | > 30 µM | – | – |
| CCC1(c2ccc(N)cc2)CCC(=O)NC1=O (stereo unspecified) [AMINOGLUTETHIMIDE] | > 30 µM | > 30 µM | > 30 µM | > 30 µM | > 30 µM | > 30 µM | > 30 µM | > 30 µM | > 30 µM | – | – | – |
| CC1=C(C(=O)OC(C)C)C(c2cccc([N+](=O)[O-])c2)C(C(=O)OC2CN(C(c3ccccc3)c3ccccc3)C2)=C(N)N1 (stereo unspecified) [AZELNIDIPINE] | 16 µM | > 30 µM | 27 µM | > 30 µM | > 30 µM | > 30 µM | 26 µM | > 30 µM | > 30 µM | > 3 µM | – | – |
| CC(Cc1cccc(C(F)(F)F)c1)NCCOC(=O)c1ccccc1 (stereo unspecified) [BENFLUOREX] | – | – | 5.7 µM | > 30 µM | – | > 30 µM | 15 µM | 3.5 µM | 28 µM | – | – | – |
| NC[C@H]1CC[C@H](C(=O)Oc2ccc(CCC(=O)O)cc2)CC1 [CETRAXATE] | – | > 30 µM | – | – | > 30 µM | – | – | > 30 µM | – | – | – | > 30 µM |
| C[C@H](CCC(=O)O)[C@H]1CC[C@H]2[C@@H]3[C@H](O)C[C@@H]4C[C@H](O)CC[C@]4(C)[C@H]3C[C@H](O)[C@]12C [CHOLIC ACID] | – | – | – | – | – | – | – | – | – | – | > 30 µM | – |
| Cc1cn([C@H]2O[C@@H](CO)[C@H](O)[C@H]2F)c(=O)[nH]c1=O [CLEVUDINE] | – | – | – | – | – | – | – | – | – | – | – | > 30 µM |
| CC(=O)[C@H]1CC[C@H]2[C@@H]3C=CC4=CC(=O)CC[C@@]4(C)[C@@H]3CC[C@]12C [DYDROGESTERONE] | – | – | – | – | – | – | – | – | – | – | – | > 30 µM |
| CNCCc1ccc(OC(=O)C(C)C)c(OC(=O)C(C)C)c1 [IBOPAMINE] | > 30 µM | > 30 µM | > 30 µM | > 30 µM | – | > 30 µM | > 30 µM | > 30 µM | > 30 µM | > 30 µM | – | – |
| CCOC(=O)C1=C(C)NC(C)=C(C(=O)OCC)C1c1ccccc1/C=C/C(=O)OC(C)(C)C [LACIDIPINE] | > 30 µM | > 30 µM | > 30 µM | > 30 µM | > 30 µM | > 30 µM | > 30 µM | > 30 µM | > 30 µM | > 30 µM | – | – |
| O=C(CCC/C=C\C[C@@H]1[C@@H](CC[C@@H](O)CCc2ccccc2)[C@H](O)C[C@@H]1O)OCCCCO[N+](=O)[O-] [LATANOPROSTENE BUNOD] | – | – | – | – | – | – | – | – | – | – | – | > 30 µM |
| COC(=O)C1=C(C)NC(C)=C(C(=O)OCCN2CCN(C(c3ccccc3)c3ccccc3)CC2)C1c1cccc([N+](=O)[O-])c1 (stereo unspecified) [MANIDIPINE 6300] | 7.4 µM | > 30 µM | > 30 µM | > 30 µM | > 30 µM | > 30 µM | 23 µM | > 30 µM | > 30 µM | > 1 µM | – | – |
| COC(=O)C[C@](O)(CCCC(C)(C)O)C(=O)O[C@@H]1C(OC)=C[C@]23CCCN2CCc2cc4c(cc2[C@H]13)OCO4 [OMACETAXINE MEPESUCCINATE] | – | – | – | – | – | – | – | – | – | – | – | > 30 µM |
| OC[C@H]1O[C@@H](n2cnc3c2NC=NC[C@H]3O)C[C@@H]1O [PENTOSTATIN] | 6.6 µM | > 30 µM | > 30 µM | > 30 µM | > 30 µM | > 30 µM | > 30 µM | > 10 µM | > 30 µM | > 30 µM | – | – |
| Cc1cccc(C)c1NC(=O)CC12CCCN1CCC2 [PILSICAINIDE] | > 30 µM | > 30 µM | > 30 µM | > 30 µM | > 30 µM | > 30 µM | > 30 µM | > 30 µM | > 30 µM | > 30 µM | – | – |
| CC(C)c1cccc(C(C)C)c1O [PROPOFOL] | > 3 µM | – | > 30 µM | > 30 µM | > 30 µM | > 30 µM | > 30 µM | > 30 µM | > 30 µM | – | – | – |
| CCCN1CC(NS(=O)(=O)N(CC)CC)CC2Cc3c(O)cccc3CC21 (stereo unspecified) [QUINAGOLIDE] | > 30 µM | > 30 µM | > 30 µM | > 30 µM | > 30 µM | > 30 µM | > 30 µM | > 30 µM | > 30 µM | > 30 µM | – | – |
| COc1cc(C)c2c(Oc3cccc(C(F)(F)F)c3)c(OC)cc(NC(C)CCCN)c2n1 (stereo unspecified) [TAFENOQUINE] | – | – | – | – | – | – | – | – | – | – | – | 2.57 µM |
| O=C1OC(OC(=O)c2cccnc2Nc2cccc(C(F)(F)F)c2)c2ccccc21 (stereo unspecified) [TALNIFLUMATE] | > 30 µM | > 30 µM | > 30 µM | > 30 µM | – | > 30 µM | > 30 µM | > 30 µM | > 30 µM | – | – | – |
| O=S1(=O)CCN(CN2CCS(=O)(=O)NC2)CN1 [TAUROLIDINE] | > 30 µM | > 30 µM | > 30 µM | > 30 µM | > 30 µM | > 30 µM | > 30 µM | > 30 µM | – | > 30 µM | – | > 30 µM |
| COc1ccc2c(C(=S)N(C)CC(=O)O)cccc2c1C(F)(F)F [TOLRESTAT] | – | – | – | – | – | – | – | – | – | – | – | > 30 µM |
| CCOC(=O)c1c(CSc2ccccc2)n(C)c2cc(Br)c(O)c(CN(C)C)c12 [UMIFENOVIR] | 19 µM | > 30 µM | > 30 µM | > 30 µM | > 30 µM | > 30 µM | 9.1 µM | 2.6 µM | > 30 µM | > 30 µM | – | – |
